According to patent US7850994B1, “Xerogel films for the controlled release of pharmaceutically active molecules” (The Trustees of the University of Pennsylvania, priority 2005, dated 2010):
Values joined by “and” are separate entries in the source; they are usually repeats but may differ in a detail not shown here. Equal entries are not always repeated.

How the values were obtained:
Staphylococcus aureus = conditions: against Staphylococcus aureus; cited from earlier work
[1] = Stability / precipitation of vancomycin in sols; assay type: physicochemical; conditions: water-free sol prepared as described by Böttcher et al
Excerpt: Vancomycin is a water-soluble drug. Sols with nominal vancomycin (Vancomycin-HCL, NovaPlus) concentrations of 5, 10, and 20% by weight were made by adding corresponding amounts of vancomycin dissolved in DI water to the sol. Although sols with various vancomycin concentrations were stable for several days, only freshly prepared mixtures were used for the application of the coatings.
Modification of the process of sol preparation was required to avoid the precipitation. It was achieved by adding water at the TEOS hydrolysis step. […] The sols with vancomycin concentrations varying from 3 to 30% by weight were stable over several days. The sols of modified compositions were successfully used for depositing vancomycin-loaded thin xerogel films to a Ti alloy substrate.

CN[C@H](CC(C)C)C(=O)N[C@H]1C(=O)N[C@@H](CC(N)=O)C(=O)N[C@H]2C(=O)N[C@H]3C(=O)N[C@H](C(=O)N[C@H](C(=O)O)c4cc(O)cc(O)c4-c4cc3ccc4O)[C@H](O)c3ccc(c(Cl)c3)Oc3cc2cc(c3O[C@@H]2O[C@H](CO)[C@@H](O)[C@H](O)[C@H]2O[C@H]2C[C@](C)(N)[C@H](O)[C@H](C)O2)Oc2ccc(cc2Cl)[C@H]1O [vancomycin]
Minimal Inhibitory Concentration (MIC) (Staphylococcus aureus): 1.5 to 3 µg/mL and 1.5 to 3.12 µg/mL
precipitation on adding a water solution of vancomycin to a sol [1]: immediate precipitation of the drug in the sol
